Values quoted from earlier work in paper PMC13575890, “Investigating substituted phenylacetamide ligands in the D4R extended binding pocket” (Bioorganic & medicinal chemistry letters, 2026).

How the values were obtained:
human D4R = biological target: T1, human D4R (Homo sapiens, UniProt P21917); parameters: method as in PMID 30883109; settings: membranes from HEK 293 cells stably expressing hD4R; previously reported compounds; read-out: Ki (nM) ± SEM [3H]N-methylspiperone D4R
T1 construct: expressed in transfected cells
T1 sequence (P21917 1-419): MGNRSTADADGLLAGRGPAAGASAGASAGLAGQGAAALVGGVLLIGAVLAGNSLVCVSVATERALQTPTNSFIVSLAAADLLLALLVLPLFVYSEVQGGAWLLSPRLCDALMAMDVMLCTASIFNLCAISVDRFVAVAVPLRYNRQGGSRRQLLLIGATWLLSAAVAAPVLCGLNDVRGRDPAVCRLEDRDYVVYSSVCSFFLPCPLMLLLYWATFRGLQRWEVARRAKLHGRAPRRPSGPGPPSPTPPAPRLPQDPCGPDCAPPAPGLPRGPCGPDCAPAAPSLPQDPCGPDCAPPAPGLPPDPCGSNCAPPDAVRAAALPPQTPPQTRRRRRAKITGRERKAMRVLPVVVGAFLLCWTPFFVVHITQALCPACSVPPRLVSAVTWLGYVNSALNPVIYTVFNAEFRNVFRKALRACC

human D3R = biological target: T2, human D3R (Homo sapiens, UniProt P35462); parameters: method as in PMID 30883109; settings: membranes from HEK 293 cells stably expressing hD3R; previously reported compounds; read-out: Ki (nM) ± SEM [3H]N-methylspiperone D3R
T2 construct: expressed in transfected cells
T2 sequence (P35462 whole entry): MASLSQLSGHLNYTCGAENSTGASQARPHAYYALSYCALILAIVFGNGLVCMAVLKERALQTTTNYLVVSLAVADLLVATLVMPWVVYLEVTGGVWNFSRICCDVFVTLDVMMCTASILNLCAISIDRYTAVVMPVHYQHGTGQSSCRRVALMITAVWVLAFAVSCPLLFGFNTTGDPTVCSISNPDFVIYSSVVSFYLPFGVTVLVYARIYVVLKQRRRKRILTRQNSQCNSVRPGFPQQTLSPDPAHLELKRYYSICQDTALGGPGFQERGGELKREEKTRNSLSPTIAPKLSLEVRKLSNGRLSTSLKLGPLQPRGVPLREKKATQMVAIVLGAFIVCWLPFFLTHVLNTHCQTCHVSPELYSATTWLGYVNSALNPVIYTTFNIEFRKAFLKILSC

Ki (human D4R) [nM] | Ki (human D3R) [nM] | Structure (SMILES)
75.1 ± 0.7 | > 50000 | Cc1cccc(NC(=O)CN2CCN(c3ccccn3)CC2)c1 [Compound 2]
66.6 ± 1.8 |  | CCc1cccc(NC(=O)CN2CCN(c3ccccn3)CC2)c1 [Compound 3]
